{"source": "patent US20250011869A1", "about": "“TLR3 INHIBITORS FOR USE IN THE TREATMENT OF DISEASES ASSOCIATED WITH CARDIOVASCULAR CALCIFICATION” (priority 2021, published 2025)", "key": {"TLR3": {"system": "TLR3", "assay": "TLR3 expression in valvular interstitial cells (immunoblot / RT-qPCR)", "format": "cell-based, human", "details": "RT-qPCR; Poly(I:C) 2, 4, 6, 24 and 48 h (FIG. 4A)", "method": "(§1) Valvular interstitial cells from patients undergoing aortic valve replacement or cardiac transplantation were isolated via collagen digestion as described previously^6. Valves were rinsed in EBSS and subsequently subjected to collagenase digestion (Sigma, St. Louis, MO; 2.5 mg/mL in M199) for 30 minutes at 37° C. Thereafter, tissue samples were vortexed and supernatant containing endothelial cells was removed. Again, collagenase was added to the remaining valve tissue (1 mg/mL) for 3 h at 37° C. For mechanical disintegration of the tissue, vortexing and repeated aspiration via a pipette was performed. The supernatant was transferred into a new tube and subjected to centrifugation (300 g for 8 minutes at 4° C.). Subsequently, cells were resuspended in M199 medium containing 10% fetal calve serum, penicillin, streptomycin, L-Glutamine and amphotericin B (2.5 mg/L).\n(§2) All cells were cultivated under standard conditions (37° C., supplied with 5% CO2). Passaging of the cells was performed at 70-90% confluency, and cells were only used until passage 7 as described previously^6. […]\n(§3) RT-PCR was performed as described previously^17. […] The result for the relative gene expression was calculated by the 2-DDCt method. Mean Ct values were calculated from double determinations and samples were considered negative if the Ct values exceeded 4017. […]"}, "TLR3-RUNX2 pathway": {"system": "TLR3-RUNX2 pathway", "assay": "Immunoblot of human dermal fibroblasts for the TLR3-RUNX2 pathway", "format": "cell-based", "details": "wild type and empty vector control cells; 5 μg/ml, 6 h", "text": "(§4) Human dermal fibroblasts WT and Tlr3^−/− were kindly provided by the Jean-Laurent Casanova group and cultivated in DMEM with 4.5 g/L glucose (Lonza, Basel, Switzerland), 10% FCS (Sigma, St. Louis, MO), penicillin, streptomycin and L-Glutamine. Human dermal fibroblasts CTR cells were provided by the Villunger group and cultivated in DMEM with 4.5 g/L glucose (Lonza, Basel, Switzerland), 10% FCS (Sigma, St. Louis, MO), penicillin, streptomycin and L-Glutamine.\n(§5) All cells were cultivated under standard conditions (37° C., supplied with 5% CO2). Passaging of the cells was performed at 70-90% confluency, and cells were only used until passage 7 as described previously^6. Polyinosinic: polycytidylic acid (Poly(I:C); Invivogen, San Diego, CA) was used to stimulate cells at a concentration of either 20 μg/mL or 5 μg/ml, depending on the assay. For blockade of TLR3, the commercially available dsRNA/TLR3 inhibitor ((R)-2-(3-Chloro-6-fluorobenzo [b] thiophene-2-carboxamido)-3-phenyl-propanoic acid) was used (Merck, Darmstadt, Germany) at a concentration of 1 μg/ml as described previously^1,7. LY294002 (Invivogen, San Diego, CA), a PI3K inhibitor, was used at a concentration of 10 μM. For blockade of IFNAR1, a specific blocking antibody (Invitrogen, Carlsbad, CA) was used at a concentration of 4 μg/ml. A stable HEK (human embryonic kidney) reporter cell line (TLR3/ISRE LUCPorter; Imgenex, USA) was purchased for luminometer assay experiments. Cells were cultivated according to the manufacturer's protocol in DMEM with 4.5 g/L glucose (Lonza, Switzerland), 10% FCS (Sigma, St. Louis, MO), penicillin/streptomycin, and 4 mM L-glutamine and […] puromycin (Gibco, USA) as selection agent. Reporter experiments were performed as described previously^8. For the protein expression SF21 cells were purchased at ThermoFisher (#11497013) and cultivated in Gibco™ Sf-900™ SFM supplemented with penicillin, streptomycin and L-Glutamine. In vitro stretch was applied using a Flexcell bioreactor (Flexcell International Corporation, Burlington, NC) applying 15% cyclic strain as described previously^9.\nProtein from tissue or cell lysates was extracted using a Radioimmunoprecipitation Assay Lysis Puffer (150 mM NaCl, 1% NP-40, 0.5% Sodium Deoxycholate, 0.1% SDS and 50 mM Tris (pH 8,0)). For the extraction of nuclear or cytosolic proteins the NE-PER™ Nuclear and Cytoplasmic Extraction Reagents Kit (ThermoScientific, #78835) was used.\nProtein was thereafter separated on SDS-polyacrylamide gels of different percentages and transferred to nitrocellulose membranes as described previously^18. After blocking with either 5% BSA in TBS 0.1% Tween, 5% milk in TBS 0.1% Tween or StartingBlock™ (TBS) Blocking buffer (ThermoScientific, #37542) membranes were incubated with primary antibodies listed in Table 2."}, "TLR3 and IFN-β": {"system": "TLR3 and IFN-β", "assay": "RT-PCR of human dermal fibroblasts (wild type, empty vector control, Tlr3−/− CRISPR)", "format": "cell-based", "details": "5 μg/ml, 6 h", "text": "as §4, §5\nRT-PCR was performed as described previously^17. Total RNA was extracted from homogenized tissue or cell lysates using the Total RNA Miniprep Kit (New England BioLabs, Frankfurt, Germany) according to the manufacturer's instructions. We performed the PCR reaction in a final volume of 12.5 μL containing 2.5 μL of cDNA, 6.25 μL of Master Mix, 1 μL of fluorogenic hybridization probe, 10 μM of primer and 2.75 μL of distilled water. […] The result for the relative gene expression was calculated by the 2-DDCt method. Mean Ct values were calculated from double determinations and samples were considered negative if the Ct values exceeded 4017. […]"}, "IFN-β": {"system": "IFN-β", "assay": "IFN-β expression in VICs (RT-qPCR)", "format": "cell-based, human", "details": "Poly(I:C) 2, 4, 6, 24 and 48 h (FIG. 4B)", "method": "as §1, §2, §3"}, "VICs [1]": {"system": "VICs", "assay": "RNA sequencing of VICs vs human osteoblasts", "format": "cell-based", "details": "Poly(I:C) 20 μg/mL, 72 h", "method": "Total-RNA was isolated from five samples (VICs, cultured in calcification media and treated either 72 h with 20 μg/ml Poly(I:C), untreated controls, as well as human osteoblasts) and submitted to transcriptome analysis for the purpose of gene-expression profiling. For the RNA sequencing analysis in FIG. 5 the 2100 Bioanalyzer and RNA 6000 Nano LabChip kits (Agilent Technologies) was used to check for RNA integrity (all RINs >9). The TruSeq® Stranded mRNA HT technology was used for library preparation according to manufacturer's protocol and Illumina NextSeq® 500 1×75 bp single end sequencing was performed at the IMGM® laboratories (Martinsried, Germany). The RNA sequencing analysis in Figure S3 was performed at Novogene (UK) Co. using the NovaSeq 600 PE150.\nAll primary sequencing analyses were performed using CLC Genomics Workbench (9.5.3) including sequence QC and mapping to the human reference genome (GRCh38.p7). Differentially expression analyses were performed on raw count data and using an exact test based on negative binomial distribution (edgeR version 3.4.0) 10. P-values were adjusted according to the Benjamini-Hochberg method based on the false discovery rate (FDR). Only genes with at least four-fold change were considered. Over representation analysis for gene ontology and pathways on differentially expressed genes were performed using DAVID (6.8) 11 and ConsensusPathDB^12. Gene set enrichment analysis on log 2-fold change pre-ranked data was performed using GSEA software^13 and gene sets for biological hallmark processes and pathways (MSigDB), calcification signature as derived from respective literature, and signatures of differentially expressed genes for calcific aortic valve stenosis versus control^14 (reanalyzed data from GSE12644 using R package limma^15 including genes with more than two-fold change and FDR <0.05). Heat maps were generated using Genesis version 1.8.116 for log 2-fold change data."}, "VICs [2]": {"system": "VICs", "assay": "Calcification assay of VICs in osteogenic medium (Alizarin Red S, alkaline phosphatase)", "format": "cell-based, human", "details": "VICs in osteoblastic medium", "method": "For functional evaluation of osteoblastic activity, VICs were subjected to a calcification assay. Cells were cultured in osteogenic medium including 10 mmol/L beta-glycerophosphate, 10 nmol/L vitamin D3, and 10 nmol/L dexamethasone as described previously^4. The medium was changed every three days. Subsequently, supernatant was analyzed for alkaline phosphatase activity using the commercially available alkaline phosphatase assay kit (Abcam, Cambridge, UK). After careful rinsing with PBS, cells were fixed with 4% paraformaldehyde, washed with distilled water and Alizarin Red S staining solution (Alfa Aesar, Haverhill, MA) was added upon the fixed cells for 20 minutes at room temperature (RT). Imaging of the staining was performed using a Zeiss Axioplan 2 microscope (Zeiss, Oberkochen, Germany). Images were processed using Adobe Photoshop CS5.1 for Mac (Adobe Systems Inc., San Jose, CA, USA) and analyzed with ImageJ software (National Institutes of Health, Bethesda, […])."}}, "data": [{"substance": "Polyinosinic: polycytidylic acid [Poly(I:C)]", "values": [{"measurement": "TLR3 expression in VICs", "setting": "TLR3", "result": "increased expression"}, {"measurement": "IFNAR1 level", "setting": "TLR3-RUNX2 pathway", "result": "upregulation of IFNAR1"}, {"measurement": "levels of osteoblastic transcription factor RUNX2", "setting": "TLR3-RUNX2 pathway", "result": "increased levels"}, {"measurement": "phosphorylation of IRF3", "setting": "TLR3-RUNX2 pathway", "result": "phosphorylation of IRF3"}, {"measurement": "transcription of TLR3 and IFN-β", "setting": "TLR3 and IFN-β; Tlr3−/− fibroblasts", "result": "no response"}, {"measurement": "transcription of TLR3 and IFN-β", "setting": "TLR3 and IFN-β; wild type and empty vector control fibroblasts", "result": "induced transcription of TLR3 and IFN-β"}, {"measurement": "IFN-β expression in VICs", "setting": "IFN-β", "result": "increased expression"}, {"measurement": "transcriptome of treated VICs", "setting": "VICs [1]", "result": "induces an osteoblastic transcriptome"}, {"measurement": "genes downregulated in both Poly(I:C)-treated VICs and human osteoblasts compared to untreated VICs", "setting": "VICs [1]; at least four-fold change", "result": 199, "unit": "genes"}, {"measurement": "genes upregulated in both Poly(I:C)-treated VICs and human osteoblasts compared to untreated VICs", "setting": "VICs [1]; at least four-fold change", "result": 118, "unit": "genes"}, {"measurement": "calcification / production of calcific nodules", "setting": "VICs [2]; Poly(I:C) 20 μg/mL or inhibitor 26 μM, Alizarin Red S", "result": "enhanced the production of calcific nodules"}, {"measurement": "alkaline phosphatase (ALP) activity", "setting": "VICs [2]; supernatant", "result": "increased the activity"}]}]}
